Test [1] concerns A/New Jersey/15/2007 (H1N1). Type of test: biochemical, human influenza virus.
The next test relates to A/Fukui/20/2004 (H3N2). Format: biochemical, human influenza virus.

Entries after “also recorded” stand apart in the source; their conditions may differ.

Turning to `CC(=O)N[C@H]1[C@H]([C@H](O)[C@H](O)CO)OC(C(=O)O)=C[C@@H]1N=C(N)N` [zanamivir, 4-guanidino-Neu5Ac2en], the figures for the “susceptibility to NAI (in words)” value (in test [1]; in the test on A/Fukui/20/2004 (H3N2)) were “zanamivir-sensitive; also recorded: susceptible” and “susceptible”, respectively.

The values above are taken from publication PMC3299860 (Antiviral Research, 2012).
